Measurements from ChEMBL document CHEMBL5154679, “A target and efficient synthetic strategy for structural and bioactivity optimization of a fungal natural product” (Eur J Med Chem, 2022).
Converted amounts (≈) assume the structure as drawn. Values belong to the compound of their own block, whether it stands above or below them. The source made the active and inactive calls. The calls are words filed in the database; no cut-off is given here.

Tests used:
HCT-116 [1] = test: Antiproliferative activity against human HCT-116 cells assessed as reduction in cell viability incubated for 48 hrs by SRB assay; format: functional, cell-based; details: HCT-116, 48 h
MDA-MB-231 [2] = test: Antiproliferative activity against human MDA-MB-231 cells assessed as reduction in cell viability incubated for 48 hrs by SRB assay; format: functional, cell-based; details: MDA-MB-231, 48 h
[3] = Volume of distribution in Sprague-Dawley rat at 1 mg/kg, iv by LC-MS/MS analysis; format: ADME, organism-based; details: in vivo
[4] = Cytotoxicity against human L02 cells assessed as reduction in cell viability incubated for 48 hrs by SRB assay; format: toxicity, cell-based
MCF7 [5] = test: Inhibition of colony formation in human MCF7 cells at 2 ug/ml measured after 48 hrs by crystal violet staining based analysis; format: functional, cell-based; details: dose 2.0 µg/ml
MCF7 [6] = test: Antiproliferative activity against human MCF7 cells assessed as reduction in cell viability incubated for 48 hrs by SRB assay; format: functional, cell-based; details: MCF7, 48 h
[7] = MRT (0 to infinity) in Sprague-Dawley rat at 1 mg/kg, iv by LC-MS/MS analysis; format: ADME, organism-based; details: in vivo
HCT-116 [8] = test: Inhibition of colony formation in human HCT-116 cells at 2 ug/ml measured after 48 hrs by crystal violet staining based analysis; format: functional, cell-based; details: dose 2.0 µg/ml
HeLa [9] = test: Inhibition of colony formation in human HeLa cells at 2 ug/ml measured after 48 hrs by crystal violet staining based analysis; format: functional, cell-based; details: dose 2.0 µg/ml
[10] = AUC (0 to t) in Sprague-Dawley rat at 1 mg/kg, iv by LC-MS/MS analysis; format: ADME, organism-based; parameters: dose 1 mg/kg, route iv; details: in vivo
[11] = MRT (0 to t) in Sprague-Dawley rat at 1 mg/kg, iv by LC-MS/MS analysis; format: ADME, organism-based; details: in vivo
HeLa [12] = test: Antiproliferative activity against human HeLa cells assessed as reduction in cell viability incubated for 48 hrs by SRB assay; format: functional, cell-based
HepG2 = test: Antiproliferative activity against human HepG2 cells assessed as reduction in cell viability incubated for 48 hrs by SRB assay; format: functional, cell-based; details: HepG2, 48 h
MGC-803 = test: Antiproliferative activity against human MGC-803 cells assessed as reduction in cell viability incubated for 48 hrs by SRB assay; format: functional, cell-based; details: MGC-803, 48 h
MDA-MB-231 [13] = test: Anti-adhesion activity against human MDA-MB-231 cells assessed as inhibition of cell adhesion measured after 6 hrs by microscopic analysis; format: functional, cell-based
MDA-MB-231 [14] = test: Anti-invasive activity against human MDA-MB-231 cells assessed as inhibition of cell invasion at 2 ug/ml measured after 24 hrs by transwell assay; format: functional, cell-based; details: dose 2.0 µg/ml
[15] = Clearance in Sprague-Dawley rat at 1 mg/kg, iv by LC-MS/MS analysis; format: ADME, organism-based; details: in vivo
[16] = Cytotoxicity against human HUVEC cells assessed as reduction in cell viability incubated for 48 hrs by SRB assay; format: toxicity, cell-based
[17] = Tmax in Sprague-Dawley rat at 1 mg/kg, iv by LC-MS/MS analysis; format: ADME, organism-based; details: in vivo
[18] = Half life in Sprague-Dawley rat at 1 mg/kg, iv by LC-MS/MS analysis; format: ADME, organism-based; details: in vivo
MDA-MB-231 [19] = test: Anti-metastasis activity against human MDA-MB-231 cells assessed as inhibition of cell migration at 2 ug/ml measured after 24 hrs by scratch wound healing assay; format: functional, cell-based; details: dose 2.0 µg/ml
[20] = AUC (0 to infinity) in Sprague-Dawley rat at 1 mg/kg, iv by LC-MS/MS analysis; format: ADME, organism-based; parameters: time infinity, dose 1 mg/kg, route iv; details: in vivo
[21] = Cmax in Sprague-Dawley rat at 1 mg/kg, iv by LC-MS/MS analysis; format: ADME, organism-based; parameters: dose 1 mg/kg, route iv; details: in vivo

IC50 (HCT-116 [1]): 11.3 µg/mL (≈ 22 µM)
SMILES: COc1cc(=O)oc(/C=C/C=C/C=C/[C@@]2(C)C[C@]3(C)O[C@H](C)[C@](C)(O2)[C@H]3C(=O)c2ccc(C#N)cc2)c1C

IC50 (HCT-116 [1]): 12.5 µg/mL (≈ 25.4 µM)
SMILES: COc1cc(=O)oc(/C=C/C=C/C=C/[C@@]2(C)C[C@]3(C)O[C@H](C)[C@](C)(O2)[C@H]3C(=O)c2cccnc2)c1C

IC50 (HCT-116 [1]): 12.5 µg/mL (≈ 21 µM)
SMILES: COc1cc(=O)oc(/C=C/C=C/C=C/[C@]2(C)O[C@]3(C)[C@@H](C(=O)c4cccnc4)[C@@](C)(O[C@@H]3C)[C@H]2C(=O)c2cccnc2)c1C

IC50 (HCT-116 [1]): 5.77 µg/mL (≈ 12.3 µM)
SMILES: COc1cc(=O)oc(/C=C/C=C/C=C/[C@]2(C)O[C@]3(C)[C@@H](C(C)=O)[C@@](C)(O[C@@H]3C)[C@H]2C(C)=O)c1C

IC50 (MDA-MB-231 [2]): 4.04 µg/mL (≈ 7.69 µM) | Vd [3]: 1.42 L/kg | IC50 (MCF7 [6]): 0.68 µg/mL (≈ 1.3 µM) | MRT inf [7]: 521 min | IC50 (HCT-116 [1]): 1.23 µg/mL (≈ 2.34 µM) | AUC(0-t) [10]: 7710 ng·h/mL | MRT last [11]: 313 min | IC50 (HeLa [12]): 1.35 µg/mL (≈ 2.57 µM) | IC50 (HepG2): 1.96 µg/mL (≈ 3.73 µM) | IC50 (MGC-803): 1.54 µg/mL (≈ 2.93 µM) | clearance [15]: 2 mL/min/kg | Tmax [17]: 7.2 min | half-life [18]: 503 min | AUC(0-inf) [20]: 8640 ng·h/mL | Cmax [21]: 3040 ng/mL
SMILES: COc1cc(=O)oc(/C=C/C=C/C=C/[C@@]2(C)C[C@]3(C)O[C@H](C)[C@](C)(O2)[C@H]3C(=O)c2ccc(Cl)cc2)c1C
IC50 at 48 h [4]: > 50 µg/mL | inhibition (MCF7 [5]): Active | inhibition (HCT-116 [8]): Active | inhibition (HeLa [9]): Active | Activity (MDA-MB-231 [13]): Active | Activity (MDA-MB-231 [14]): Active | IC50 at 48 h [16]: > 50 µg/mL | Activity (MDA-MB-231 [19]): Active

IC50 (HCT-116 [1]): 7.04 µg/mL (≈ 16.4 µM)
SMILES: COc1cc(=O)oc(/C=C/C=C/C=C/[C@@]2(C)C[C@]3(C)O[C@H](C)[C@](C)(O2)[C@H]3C(C)=O)c1C

IC50 (HCT-116 [1]): 11.4 µg/mL (≈ 23.3 µM)
SMILES: COc1cc(=O)oc(/C=C/C=C/C=C/[C@@]2(C)C[C@]3(C)O[C@H](C)[C@](C)(O2)[C@H]3C(=O)c2ccccn2)c1C

IC50 (MDA-MB-231 [2]): 4.46 µg/mL (≈ 9.28 µM) | IC50 (MCF7 [6]): 0.74 µg/mL (≈ 1.54 µM) | IC50 (HCT-116 [1]): 1.4 µg/mL (≈ 2.91 µM) | IC50 (HeLa [12]): 1.48 µg/mL (≈ 3.08 µM) | IC50 (HepG2): 4.19 µg/mL (≈ 8.72 µM) | IC50 (MGC-803): 5.79 µg/mL (≈ 12 µM)
SMILES: COc1cc(=O)oc(/C=C/C=C/C=C/[C@@]2(C)C[C@]3(C)O[C@H](C)[C@](C)(O2)[C@H]3C(=O)c2ccco2)c1C
IC50 at 48 h [4]: > 50 µg/mL | IC50 at 48 h [16]: > 50 µg/mL

IC50 (HCT-116 [1]): 4.97 µg/mL (≈ 9.55 µM)
SMILES: COc1ccc(C(=O)[C@@H]2[C@@]3(C)O[C@@](C)(/C=C/C=C/C=C/c4oc(=O)cc(OC)c4C)C[C@]2(C)O[C@@H]3C)cc1

SMILES: COc1cc(=O)oc(/C=C/C=C/C=C/C(C)=C/C2(C)O[C@H](C)[C@](C)(O)[C@H]2O)c1C (some centres not stated)
IC50 (HCT-116 [1]): 19.8 µg/mL (≈ 49.1 µM)

IC50 (MDA-MB-231 [2]): 2.87 µg/mL (≈ 5.78 µM) | IC50 (MCF7 [6]): 0.62 µg/mL (≈ 1.25 µM) | IC50 (HCT-116 [1]): 0.63 µg/mL (≈ 1.27 µM) | IC50 (HeLa [12]): 1.01 µg/mL (≈ 2.03 µM) | IC50 (HepG2): 2.42 µg/mL (≈ 4.87 µM) | IC50 (MGC-803): 3.97 µg/mL (≈ 7.99 µM)
SMILES: COc1cc(=O)oc(/C=C/C=C/C=C/[C@@]2(C)C[C@]3(C)O[C@H](C)[C@](C)(O2)[C@H]3C(=O)c2cccs2)c1C
IC50 at 48 h [4]: > 50 µg/mL | inhibition (MCF7 [5]): Active | inhibition (HCT-116 [8]): Active | inhibition (HeLa [9]): Active | IC50 at 48 h [16]: > 50 µg/mL

IC50 (HCT-116 [1]): 6.44 µg/mL (≈ 11.9 µM)
SMILES: COc1cc(=O)oc(/C=C/C=C/C=C/[C@@]2(C)C[C@]3(C)O[C@H](C)[C@](C)(O2)[C@H]3C(=O)Cc2ccc(Cl)cc2)c1C

IC50 (HCT-116 [1]): 28.8 µg/mL (≈ 48.4 µM)
SMILES: COc1cc(=O)oc(/C=C/C=C/C=C/[C@]2(C)O[C@]3(C)[C@@H](C(=O)c4ccccc4)[C@@](C)(O[C@@H]3C)[C@H]2C(=O)c2ccccc2)c1C

IC50 (HCT-116 [1]): 13.5 µg/mL (≈ 27.5 µM)
SMILES: COc1cc(=O)oc(/C=C/C=C/C=C/[C@@]2(C)C[C@]3(C)O[C@H](C)[C@](C)(O2)[C@H]3C(=O)c2ccncc2)c1C

IC50 (MDA-MB-231 [2]): 0.37 µg/mL (≈ 0.681 µM) | IC50 (HCT-116 [1]): 3.36 µg/mL (≈ 6.18 µM) | IC50 (HeLa [12]): 0.051 µg/mL (≈ 0.0938 µM) | IC50 (HepG2): 0.64 µg/mL (≈ 1.18 µM) | IC50 (MGC-803): 0.51 µg/mL (≈ 0.938 µM)
SMILES: COc1cccc2c1C(=O)c1c(O)c3c(c(O)c1C2=O)C[C@@](O)(C(=O)CO)C[C@@H]3O[C@H]1C[C@H](N)[C@H](O)[C@H](C)O1 [DOXORUBICIN]
IC50 at 48 h [4]: > 50 µg/mL | IC50 at 48 h [16]: 23.3 µg/mL (≈ 42.9 µM)

IC50 (HCT-116 [1]): 4.89 µg/mL (≈ 8.84 µM)
SMILES: COc1cc(=O)oc(/C=C/C=C/C=C/[C@@]2(C)C[C@]3(C)O[C@H](C)[C@](C)(O2)[C@H]3C(=O)CCc2ccc(Cl)cc2)c1C

IC50 (HCT-116 [1]): 4.98 µg/mL (≈ 10.6 µM)
SMILES: COc1cc(=O)oc(/C=C/C=C/C=C/[C@@]2(C)C[C@]3(C)O[C@H](C)[C@](C)(O2)[C@H]3C(=O)C(C)(C)C)c1C

SMILES: COc1cc(=O)oc(/C=C/C=C/C=C/[C@]2(C)O[C@]3(C)[C@@H](O)[C@@](C)(O[C@@H]3C)[C@H]2O)c1C
Vd [3]: 2.5 L/kg | inhibition (MCF7 [5]): Active | MRT inf [7]: 21 min | IC50 (HCT-116 [1]): 14.9 µg/mL (≈ 35.6 µM) | inhibition (HCT-116 [8]): Active | inhibition (HeLa [9]): Active | AUC(0-t) [10]: 203 ng·h/mL | MRT last [11]: 19.8 min | Activity (MDA-MB-231 [14]): Active | clearance [15]: 83.2 mL/min/kg | Tmax [17]: 6 min | half-life [18]: 21 min | Activity (MDA-MB-231 [19]): Active | AUC(0-inf) [20]: 206 ng·h/mL | Cmax [21]: 417 ng/mL

IC50 (HCT-116 [1]): 5.9 µg/mL (≈ 13.8 µM)
SMILES: CCC[C@@H]1[C@@]2(C)O[C@@](C)(/C=C/C=C/C=C/c3oc(=O)cc(OC)c3C)C[C@]1(C)O[C@@H]2C

IC50 (MDA-MB-231 [2]): 4.38 µg/mL (≈ 8.93 µM) | IC50 (MCF7 [6]): 0.92 µg/mL (≈ 1.88 µM) | IC50 (HCT-116 [1]): 1.52 µg/mL (≈ 3.1 µM) | IC50 (HeLa [12]): 0.85 µg/mL (≈ 1.73 µM) | IC50 (HepG2): 3.96 µg/mL (≈ 8.07 µM) | IC50 (MGC-803): 3.97 µg/mL (≈ 8.09 µM)
SMILES: COc1cc(=O)oc(/C=C/C=C/C=C/[C@@]2(C)C[C@]3(C)O[C@H](C)[C@](C)(O2)[C@H]3C(=O)c2ccccc2)c1C
IC50 at 48 h [4]: 30.1 µg/mL (≈ 61.4 µM) | IC50 at 48 h [16]: > 50 µg/mL

IC50 (HCT-116 [1]): 4.29 µg/mL (≈ 9.12 µM)
SMILES: CCC[C@H]1[C@@]2(C)O[C@H](C)[C@]1(C)O[C@@](C)(/C=C/C=C/C=C/c1oc(=O)cc(OC)c1C)[C@@H]2CCC
